Experimental data: PubChem BioAssay (NCI)
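Compound exposure: 48 hours, 5 concentrations, 96-well plates. TGI denotes the concentration required for complete inhibition of growth.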

Columns and labels:
Assay in all cases: NCI-60 cell line screen, 48 h
[1] = tested on: HOP-62 NSCLC
[2] = tested on: SNB-75 CNS
[3] = tested on: OVCAR-5 ovarian
[4] = tested on: TK-10 renal
[5] = tested on: ACHN renal
[6] = tested on: HL-60(TB) leukemia
[7] = tested on: SW-620 colon

| Compound | TGI [1] | TGI [2] | TGI [3] | TGI [4] | TGI [5] | TGI [6] | TGI [7] |
| --- | --- | --- | --- | --- | --- | --- | --- |
| Cc1ccc(C2=NO[C@@H]3C(=O)N(c4ccc(Cc5ccc(N6C(=O)[C@H]7C(c8ccc(C)cc8)=NO[C@H]7C6=O)cc5)cc4)C(=O)[C@H]23)cc1 | > 100 µM | > 100 µM | > 100 µM | > 100 µM | > 100 µM | > 100 µM | > 100 µM |
| O=C1c2ccccc2C(=O)c2nc(-c3ccccc3)c(-c3ccccc3)nc21 | > 100 µM | 29.2 µM | > 100 µM | > 100 µM | > 100 µM |  | > 100 µM |
| Cn1c2cccc3nnc4cccc(c4c32)n1C |  |  | > 100 µM |  | > 100 µM | > 100 µM | > 100 µM |
| COC(=O)C1C(=O)O[C@@H](c2ccc(OC)cc2OC)C1C(=O)OC (stereo not given in full) | > 100 µM | > 100 µM | > 100 µM | > 100 µM | > 100 µM | > 100 µM | > 100 µM |
| O=C(CC(=O)C(F)(F)F)c1csc2ccccc12 | 81.1 µM |  | > 100 µM | 28.4 µM | > 100 µM |  | > 100 µM |
| O=C(C=Nc1ccccc1C(=O)[O-])c1cccs1.O=C(C=Nc1ccccc1C(=O)[O-])c1cccs1.[Cu+2] | > 100 µM | > 10 µM | > 100 µM | > 100 µM | > 100 µM | > 100 µM | > 100 µM |
| CC(=O)Nc1ccc(/C=C/C(=O)c2sc(C(N)=S)nc2C)cc1 | > 100 µM | > 100 µM | > 100 µM | > 100 µM |  | > 100 µM | > 100 µM |
| CC1OC(O)CC(OC(=O)c2ccccc2)C1OC(=O)c1ccccc1 (stereo not given) | > 100 µM |  | > 100 µM | > 100 µM | > 100 µM | 36 µM | 26.7 µM |
| COc1ccccc1NC(=O)C1=C(C)NC(C)=C(C(=O)Nc2ccccc2OC)C1c1ccccc1OC | > 100 µM | 69 µM | > 100 µM | > 100 µM | > 100 µM | > 100 µM | > 100 µM |
| O=S1c2ccc(Cl)cc2CC(SSC2Cc3cc(Cl)ccc3S(=O)c3ccccc32)c2ccccc21 (stereo not given) | > 100 µM | > 100 µM | > 100 µM | > 100 µM | > 100 µM | > 100 µM | > 100 µM |
| COC(=O)C1=CC2OC13CC1CCC3(C2=O)C1(C)C (stereo not given) | 48.1 µM | 19.9 µM | 33.2 µM | 22.6 µM | 21.2 µM | 23.1 µM | 19.4 µM |
| COC(=O)C1=CC2OC1(C)C1(CC1)C2=O (stereo not given) | > 100 µM | 50 µM | 57.4 µM |  | 34.4 µM | 16.1 µM | 34 µM |
| CCOC(=O)/C=C1\Nc2ccccc2-n2nnnc21 | > 100 µM | > 100 µM | > 100 µM | > 100 µM | > 100 µM | > 100 µM | 58.6 µM |
| COC(=O)C(=O)C(C(=O)C(=O)Nc1cc([N+](=O)[O-])ccc1[N+](=O)[O-])c1nc2ccc(C(=O)c3ccccc3)cc2[nH]c1=O (stereo not given) | > 100 µM |  | 70.5 µM |  | > 100 µM |  | > 100 µM |
| COc1ccc2c(c1)[n+]([O-])c(-c1nc3ccccc3s1)c(N)[n+]2[O-] | > 100 µM | > 100 µM | > 100 µM |  | > 100 µM | > 100 µM | > 100 µM |
| CCCCCCCCCCCC(=O)OCC1OC(n2cc(F)c(=O)[nH]c2=O)C(N)C(O)C1O (stereo not given) | > 100 µM | > 100 µM | > 100 µM |  | > 100 µM | > 100 µM | > 100 µM |
| CC1C(=O)N(C)C2(CO)C(=O)O[C@H](C)C12O (stereo not given in full) | > 100 µM |  | > 100 µM | > 100 µM |  |  |  |
| CCOC(=O)C1=C(C)N(NC(=O)c2ccccc2)C2(O)CCCC12C(=O)OCC (stereo not given) | > 100 µM | > 100 µM | > 100 µM |  | > 100 µM | > 100 µM | > 100 µM |
| CCCCCCCCCC(=O)OCC1OC(n2cc(F)c(=O)[nH]c2=O)C(N)C(OC(=O)CCCCCCCCC)C1O (stereo not given) | > 100 µM | 34.4 µM |  | > 100 µM | > 100 µM | 55.1 µM | 31.8 µM |
| O=C(NCC#CCO)C(F)(F)F | > 100 µM |  | > 100 µM | > 100 µM | > 100 µM |  | > 100 µM |
| O=C(O)/C(Cl)=C(\Cl)C(=O)Nc1ccccc1 | > 100 µM | > 100 µM | > 100 µM | > 100 µM | > 100 µM |  | > 100 µM |
| CC12CC3CC(C)(C1)CC(N=[N+]=[N-])(C3)C2 | > 100 µM | > 100 µM | > 100 µM | > 100 µM | > 100 µM |  | > 100 µM |
| Cc1ccc(S(=O)(=O)N/N=C(\C(=O)Nc2cccc([N+](=O)[O-])c2)c2nc3ccc([N+](=O)[O-])cc3[nH]c2=O)cc1 | > 100 µM |  | > 100 µM |  | > 100 µM |  | > 100 µM |
| Cc1c(Cl)ccc2c1NC(=O)C2(O)C1Cc2ccccc2C1=O (stereo not given) | > 100 µM |  | > 100 µM | > 100 µM | > 100 µM | 65.4 µM | > 100 µM |
